Results: ChEMBL document CHEMBL5113518, “Discovery of a Novel G-Quadruplex and Histone Deacetylase (HDAC) Dual-Targeting Agent for the Treatment of Triple-Negative Breast Cancer” (J Med Chem, 2022)
pIC50, pKd: −log10 of the molar value. The source made the active and inactive calls. No cut-off for these calls is given here.

Columns and labels:
[1] = tested on: MDA-MB-231; experiment: Stabilization of DNA Pu22 (unknown origin ) in human MDA-MB-231 cells assessed as G4-quadruplex formation by measuring fold change at 2.5 uM incubated for 6 hrs by immunofluorescence based confocal laser scanning microscopic analysis; type: cell-based
[2] = tested on: BT-549; experiment: Induction of DNA damage in human BT-549 at 1.25 to 5 uM assessed as increase in gamma-H2AX level and measured for 48 hrs by DAPI staining method; type: functional, cell-based; conditions: dose 1.25-5 µM
[3] = target: Quadruplex DNA; experiment: Binding affinity to […]' FAM-labeled c-myc G4-quadruplex DNA Pu22 (unknown origin) by fluorescence quench assay; type: nucleic-acid assay
[4] = tested on: HeLa; experiment: Potency index, ratio of SAHA IC50 to test compound IC50 for inhibition of HDAC in human HeLa nuclear extract
[5] = tested on: MDA-MB-231; experiment: Effect on metabolism in human MDA-MB-231 cells assessed as oxygen consumption rate at 2.5 uM measured after 48 hrs by seahorse XF24 analysis; type: functional, cell-based
[6] = Toxicity in BALB/c-nu/nu mouse assessed as toxic sign at 2.5 mg/kg, ip measured for 31 days; type: organism-based; conditions: in vivo, 744 h, time 31 day
[7] = tested on: MDA-MB-231; experiment: Cytotoxicity against human MDA-MB-231 cells harboring wild type BRCA1 and wild BRCA2 assessed as reduction in cell viability; type: functional, cell-based
[8] = tested on: MDA-MB-231; experiment: Stabilization of DNA Pu22 (unknown origin ) in human MDA-MB-231 cells assessed as G4-quadruplex formation by measuring fold change at 1.25 to 5 uM incubated for 48 hrs by immunofluorescence based confocal laser scanning microscopic analysis; type: cell-based; conditions: dose 1.25-5 µM
[9] = tested on: MDA-MB-231; experiment: Antitumor activity against human MDA-MB-231 cells xenografted in BALB/c-nu/nu mouse assessed as reduction in tumor growth at 2.5 mg/kg, ip measured for 31 days; type: functional, organism-based; conditions: time 31.0 day
[10] = Toxicity in BALB/c-nu/nu mouse at 2.5 mg/kg, ip measured for 31 days; type: organism-based; conditions: in vivo, 744 h, time 31 day
[11] = target: T1, Histone deacetylase (Homo sapiens) (UniProt Q13547+O15379+Q9UBN7+Q92769+Q9UQL6+Q8WUI4+Q9BY41+Q96DB2+P56524+Q9UKV0+Q969S8); experiment: Inhibition of HDAC in human BT-549 cells assessed as increase in acetylated alpha-tubulin level at 1.25 to 5 uM by Western blot analysis; type: cell-based; conditions: dose 1.25-5 µM
[12] = tested on: BT-549; experiment: Cytotoxicity against human BT-549 cells harboring wild type BRCA1 and wild type BRCA2 assessed as reduction in cell viability; type: functional, cell-based
[13] = tested on: BT-549; experiment: Inhibition of colony formation in human BT-549 cells measured for 7 days by crystal violet staining based assay; type: functional, cell-based; conditions: dose 2.5 µM, time 7.0 day, DDE = dose-dependent effect
[14] = tested on: Quadruplex DNA; conditions: dose 1.0 µM
Description: Binding affinity to 5' FAM and 3' TAMRA-labeled c-myc G4-quadruplex DNA Pu22 (unknown origin) assessed as change in melting temperature at 1 uM by fluorescence resonance energy transfer assay

[15] = target: Quadruplex DNA; experiment: Binding affinity to 5' FAM-labeled c-myc G4-quadruplex DNA Pu22 (unknown origin) assessed as dissociation constant by surface plasmon resonance assay; type: nucleic-acid assay
[16] = tested on: MDA-MB-231; experiment: Inhibition of cell invasion in human MDA-MB-231 cells at 2.5 uM incubated for 48 hrs by crystal violet staining based transwell assay; type: functional
[17] = tested on: MDA-MB-468; experiment: Cytotoxicity against human MDA-MB-468 cells harboring wild type BRCA1 and BRCA2 mutant reduction in assessed as cell viability; type: functional, cell-based
[18] = target: Quadruplex DNA; experiment: Binding affinity to 5' FAM-labeled c-myc G4-quadruplex DNA Pu22 (unknown origin) by fluorescence quench assay; type: nucleic-acid assay
[19] = Elimination half life in Sprague-Dawley rat at 2 mg/kg, iv measured up to 24 hrs by LC-MS/MS analysis; type: ADME, organism-based; conditions: in vivo, read-out: beta t1/2 (converted)
[20] = tested on: MDA-MB-231; experiment: Effect on metabolism in human MDA-MB-231 cells assessed as reduction in glycolysis at 2.5 uM measured after 48 hrs by seahorse XF24 analysis; type: functional, cell-based
[21] = target: Histone deacetylase 1 (Homo sapiens, UniProt Q13547); experiment: Inhibition of full length recombinant C-terminal GST-tagged human HDAC1 expressed in baculovirus infected Sf9 insect cells incubated for 50 mins by Glo- luminescence assay
[22] = target: Quadruplex DNA; experiment: Binding affinity to 5' FAM-labeled c-myc G4-quadruplex DNA HTG21 (unknown origin) assessed as dissociation constant by surface plasmon resonance assay; type: nucleic-acid assay
[23] = tested on: MDA-MB-231; experiment: Induction of DNA damage in human MDA-MB-231 cells at 1.25 to 5 uM assessed as increase in gamma-H2AX level and measured for 48 hrs by DAPI staining method; type: functional, cell-based; conditions: dose 1.25-5 µM
[24] = Stabilization of DNA Pu22 (unknown origin ) single strand assessed as G4-quadruplex formation up to 30 uM in presence of potassium ions by spectrum based circular dichroism analysis
[25] = tested on: MDA-MB-231; experiment: Inhibition of colony formation in human MDA-MB-231 cells measured for 7 days by crystal violet staining based assay; type: functional, cell-based; conditions: dose 2.5 µM, time 7.0 day, DDE = dose-dependent effect
[26] = target: T1, Histone deacetylase (Homo sapiens); experiment: Inhibition of HDAC in human SUM159PT cells assessed as increase in acetylated alpha-tubulin level at 1.25 to 5 uM by Western blot analysis; type: cell-based; conditions: dose 1.25-5 µM

Histone deacetylase 1, sequence (Q13547 whole entry): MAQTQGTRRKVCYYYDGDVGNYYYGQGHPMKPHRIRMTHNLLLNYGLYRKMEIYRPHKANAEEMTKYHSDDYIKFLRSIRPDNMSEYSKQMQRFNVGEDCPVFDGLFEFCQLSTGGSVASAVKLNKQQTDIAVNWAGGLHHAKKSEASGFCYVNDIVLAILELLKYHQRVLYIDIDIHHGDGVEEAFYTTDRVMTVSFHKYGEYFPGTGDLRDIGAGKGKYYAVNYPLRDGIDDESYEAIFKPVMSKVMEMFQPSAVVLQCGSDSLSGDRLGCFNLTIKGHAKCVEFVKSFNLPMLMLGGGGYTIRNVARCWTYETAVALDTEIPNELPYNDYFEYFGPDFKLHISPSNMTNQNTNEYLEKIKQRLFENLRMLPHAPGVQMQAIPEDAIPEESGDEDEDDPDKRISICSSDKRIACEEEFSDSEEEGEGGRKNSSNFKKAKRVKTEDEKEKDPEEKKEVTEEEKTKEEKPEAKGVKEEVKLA

In the case of `CN(C)CCCNC(=O)c1ccc(/C=C2\CCn3c2nc2cc(N4CCN(CCCCCCCC(=O)NO)CC4)c(F)cc2c3=O)cc1.Cl`, the Activity [1] was “Active”, the Activity [2] was “Active” and the DC50 [3] was 0.1 µM. For the same compound, the Ratio IC50 [4] was 20, the Activity [5] was “Active” and the Activity [6] was “Non-Toxic”. The pIC50 [7] was 5.39, the fold change (FC) [8] was 8 and the Activity [9] was “Active”. For the same compound, the Activity [10] was “Non-Toxic”, the inhibition [11] was “Active” and the pIC50 [12] was 5.19. The inhibition [13] was “Dde”, the ΔTm [14] was 16.7 °C and the pKd [15] was 5.80. The inhibition [16] was “Active”, the pIC50 [17] was 5.48 and the DC50 [18] was 0.4 µM. The half-life [19] was 7.4 h, the Activity [20] was “Active” and the pIC50 [21] was 5.90. The pKd [22] was < 5.00, the Activity [23] was “Active” and the Activity [24] was “Active”. The inhibition [25] was “Dde” and the inhibition [26] was “Active”.
